This assay deals with T1, Recombinant (1-346) HPK1 (h) (Homo sapiens, UniProt Q92918).
T1 construct: Recombinant (1-346) HPK1 (h) is incubated with 8 mM MOPS pH 7.0
T1 sequence (Q92918 1-346): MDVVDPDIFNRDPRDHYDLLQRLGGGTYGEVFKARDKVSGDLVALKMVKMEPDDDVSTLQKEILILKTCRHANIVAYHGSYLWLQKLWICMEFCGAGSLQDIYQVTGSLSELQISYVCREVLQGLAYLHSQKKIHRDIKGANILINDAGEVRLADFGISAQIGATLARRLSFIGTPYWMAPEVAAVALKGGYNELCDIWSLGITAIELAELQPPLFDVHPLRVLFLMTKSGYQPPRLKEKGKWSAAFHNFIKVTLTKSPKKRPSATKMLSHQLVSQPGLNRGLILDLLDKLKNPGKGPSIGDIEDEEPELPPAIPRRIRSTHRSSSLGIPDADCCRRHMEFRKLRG
As to the kind of experiment: HPK1 human STE kinase enzymatic radiometric assay. It is filed as biochemical. The note with it: read-out: HPK1 IC50 nM Range. The method in brief:
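Compounds in 3-fold, 9-point serial dilution; kinase (residues 1-346) phosphorylates myelin basic protein (0.33 mg/mL) using [gamma-33P]-ATP at pH 7.0 (MOPS, EDTA, Mg acetate) for 40 min, room temperature. Acid-quenched mixture filtered onto P30 mats; incorporated radioactivity read by scintillation counting.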

Consider `Nc1nc(F)c(-c2ccc(N3CCN(CCC(F)F)CC3)cc2)nc1-c1cc(F)c2c(c1)CCNC2=O` [Example I-82, 6-(3-amino-6-(4-(4-(3,3-difluoropropyl)piperazin-1-yl)phenyl)-5-fluoropyrazin-2-yl)-8-fluoro-3,4-dihydroisoquinolin-1(2H)-one], for which the IC50 is 0.1 to 10 nM.

In the case of `CN(C)Cc1cc(-c2nc(-c3cc4c(cc3F)C(=O)NCC4)c(N)nc2F)ccc1OCC1CCOCC1` [Example I-179, 6-(3-amino-6-(3-((dimethylamino)methyl)-4-((tetrahydro-2H-pyran-4-yl)methoxy)phenyl)-5-fluoropyrazin-2-yl)-7-fluoro-3,4-dihydroisoquinolin-1(2H)-one], the half-inhibitory concentration (IC50) was 0.1 to 10 nM.

With `C[C@H]1CN(c2ccc(-c3nc(-c4ccc5c(c4)CCNC5=O)c(N)nc3F)cc2CN2CCC2)CCO1` [Example I-214, (S)-6-(3-amino-6-(3-(azetidin-1-ylmethyl)-4-(2-methylmorpholino)phenyl)-5-fluoropyrazin-2-yl)-3,4-dihydroisoquinolin-1(2H)-one], the half-maximal inhibitory concentration (IC50) was in the range of 0.1 to 10 nM.

`CN(C)Cc1cc(-c2nc(-c3ccc4c(c3)CCNC4=O)c(N)nc2F)cnc1N1CCOCC1` [Example I-237, 6-(3-amino-6-(5-((dimethylamino)methyl)-6-morpholinopyridin-3-yl)-5-fluoropyrazin-2-yl)-3,4-dihydroisoquinolin-1(2H)-one]: the half-maximal inhibitory concentration (IC50) lay within 11 to 100 nM.

Regarding `CN(C)Cc1cc(-c2nc(-c3ccc4c(=O)[nH]cc(F)c4c3)c(N)nc2F)cc2c1OCCC2` [Example I-268, 6-(3-amino-6-(8-((dimethylamino)methyl)chroman-6-yl)-5-fluoropyrazin-2-yl)-4-fluoroisoquinolin-1(2H)-one], the half-maximal inhibitory concentration (IC50) was 0.1 to 10 nM.

Turning to `Cc1c[nH]c(=O)c2c(F)cc(-c3nc(-c4ccc(C5CCOCC5)c(CN(C)C)c4)c(F)nc3N)cc12` [Example I-167, 6-(3-amino-6-(3-((dimethylamino)methyl)-4-(tetrahydro-2H-pyran-4-yl)phenyl)-5-fluoropyrazin-2-yl)-8-fluoro-4-methylisoquinolin-1(2H)-one], the half-maximal inhibitory concentration (IC50) lay in the range of 0.1 to 10 nM.

As to `Cc1[nH]c(=O)c2c(F)cc(-c3nc(-c4ccc(N5CCN(C(C)C)CC5)cc4)c(F)nc3N)cc2c1Cl` [Example I-102, 6-(3-amino-5-fluoro-6-(4-(4-isopropylpiperazin-1-yl)phenyl)pyrazin-2-yl)-4-chloro-8-fluoro-3-methylisoquinolin-1(2H)-one], the half-inhibitory concentration (IC50) lay within 0.1 to 10 nM.

With `Cc1c[nH]c(=O)c2ccc(-c3nc(-c4cc(F)c(N5CCOCC5)c(CN(C)C)c4)c(F)nc3N)cc12` [Example I-266, 6-(3-amino-6-(3-((dimethylamino)methyl)-5-fluoro-4-morpholinophenyl)-5-fluoropyrazin-2-yl)-4-methylisoquinolin-1(2H)-one], the concentration for half-maximal inhibition (IC50) was in the range of 0.1 to 10 nM.

Consider `Cc1[nH]c(=O)c2ccc(-c3nc(-c4ccc(N5CCN(CC6CC6)CC5)cc4)c(F)nc3N)cc2c1Cl` [Example I-122, 6-(3-amino-6-(4-(4-(cyclopropylmethyl)piperazin-1-yl)phenyl)-5-fluoropyrazin-2-yl)-4-chloro-3-methylisoquinolin-1(2H)-one], for which the IC50 was 0.1 to 10 nM.

On to `CC1NC(=O)c2c(F)cc(-c3nc(-c4ccc([C@]56C[C@H]5CN(C5CCC5)C6)cc4)c(F)nc3N)cc2C1(F)F` (stereo partly drawn) [Example I-195, 6-(3-amino-6-(4-((1S,5R)-3-cyclobutyl-3-azabicyclo[3.1.0]hexan-1-yl)phenyl)-5-fluoropyrazin-2-yl)-4,4,8-trifluoro-3-methyl-3,4-dihydroisoquinolin-1(2H)-one], for which the IC50 lay in the range of 11 to 100 nM.

As to `CCN(C)Cc1cc(-c2nc(-c3cc4c(cc3F)C(=O)NCC4)c(N)nc2F)cc(C)c1OC` [Example I-303, 6-(3-amino-6-(3-((ethyl(methyl)amino)methyl)-4-methoxy-5-methylphenyl)-5-fluoropyrazin-2-yl)-7-fluoro-3,4-dihydroisoquinolin-1(2H)-one], the IC50 lay in the range of 0.1 to 10 nM.

As to `Cc1c[nH]c(=O)c2ccc(-c3nc(-c4cnc(N5CCOCC5)c(CN(C)C)c4)c(F)nc3N)cc12` [Example I-236, 6-(3-amino-6-(5-((dimethylamino)methyl)-6-morpholinopyridin-3-yl)-5-fluoropyrazin-2-yl)-4-methylisoquinolin-1(2H)-one], the IC50 is 11 to 100 nM.

In the case of `CCN(C)Cc1cc(-c2nc(-c3ccc4c(=O)[nH]cc(C)c4c3)c(N)nc2F)ccc1OC` [Example I-301, 6-(3-amino-6-(3-((ethyl(methyl)amino)methyl)-4-methoxyphenyl)-5-fluoropyrazin-2-yl)-4-methylisoquinolin-1(2H)-one], the IC50 lay within 11 to 100 nM.

As for `CN(C)[C@@H]1COc2ccc(-c3nc(-c4ccc5c(=O)[nH]ccc5c4)c(N)nc3F)cc21` [Example I-283, (S)-6-(3-amino-6-(3-(dimethylamino)-2,3-dihydrobenzofuran-5-yl)-5-fluoropyrazin-2-yl)isoquinolin-1(2H)-one], the concentration for half-maximal inhibition (IC50) lay in the range of 11 to 100 nM.

With `CN(C)Cc1c(N2CCOCC2)ccc(-c2nc(-c3cc(F)c4c(c3)CCNC4=O)c(N)nc2F)c1F` [Example I-242, 6-(3-amino-6-(3-((dimethylamino)methyl)-2-fluoro-4-morpholinophenyl)-5-fluoropyrazin-2-yl)-8-fluoro-3,4-dihydroisoquinolin-1(2H)-one], the IC50 lay within 11 to 100 nM.

With `C[C@@H]1CN(c2ccc(-c3nc(-c4ccc5c(c4)CCNC5=O)c(N)nc3F)cc2)C[C@H](C)N1C` [Example I-57, 6-(3-amino-5-fluoro-6-(4-((3R,5S)-3,4,5-trimethylpiperazin-1-yl)phenyl)pyrazin-2-yl)-3,4-dihydroisoquinolin-1(2H)-one], the half-maximal inhibitory concentration (IC50) was in the range of 0.1 to 10 nM.

For the compound `CN(C)[C@@H]1CCOc2ccc(-c3nc(-c4cc(F)c5c(c4)CCNC5=O)c(N)nc3F)cc21` [Example I-289, (R)-6-(3-amino-6-(4-(dimethylamino)chroman-6-yl)-5-fluoropyrazin-2-yl)-8-fluoro-3,4-dihydroisoquinolin-1(2H)-one], the concentration for half-maximal inhibition (IC50) lay within 11 to 100 nM.

Turning to `Cc1cc(-c2nc(-c3ccc4c(=O)[nH]cc(F)c4c3)c(N)nc2F)cc2c1CCN(C)C2` [Example I-296, 6-(3-amino-6-(2,5-dimethyl-1,2,3,4-tetrahydroisoquinolin-7-yl)-5-fluoropyrazin-2-yl)-4-fluoroisoquinolin-1(2H)-one], the IC50 is 0.1 to 10 nM.

For `Cc1c[nH]c(=O)c2ccc(-c3nc(-c4ccc(O)c(C(C)N(C)C)c4)c(F)nc3N)cc12` (stereo not drawn) [Example I-304, 6-(3-amino-6-(3-(1-(dimethylamino)ethyl)-4-hydroxyphenyl)-5-fluoropyrazin-2-yl)-4-methylisoquinolin-1(2H)-one], the concentration for half-maximal inhibition (IC50) is 0.1 to 10 nM.

Take `Cc1c[nH]c(=O)c2ccc(-c3nc(-c4ccc(C5CCOCC5)cc4)c(F)nc3N)cc12` [Example I-181, 6-(3-amino-5-fluoro-6-(4-(tetrahydro-2H-pyran-4-yl)phenyl)pyrazin-2-yl)-4-methylisoquinolin-1(2H)-one]: the IC50 was in the range of 0.1 to 10 nM.

On to `Nc1nc(F)c(-c2ccc(N3CCOCC3)cc2)nc1-c1cc2c(cc1F)C(=O)NCC2` [Example I-34, 6-(3-amino-5-fluoro-6-(4-morpholinophenyl)pyrazin-2-yl)-7-fluoro-3,4-dihydroisoquinolin-1(2H)-one], for which the IC50 was 0.1 to 10 nM.

As to `Cc1nc2cc(-c3nc(-c4ccc(C5CCOCC5)c(CN5CCC[C@H]5C)c4)c(F)nc3N)cc(F)c2c(=O)[nH]1` [Example I-217, (R)-7-(3-amino-5-fluoro-6-(3-((2-methylpyrrolidin-1-yl)methyl)-4-(tetrahydro-2H-pyran-4-yl)phenyl)pyrazin-2-yl)-5-fluoro-2-methylquinazolin-4(3H)-one], the half-maximal inhibitory concentration (IC50) lay within 11 to 100 nM.

As for `CC1NC(=O)c2c(F)cc(-c3nc(-c4ccc(N5CCN(C6CCC6)CC5)cc4)c(F)nc3N)cc2C1(F)F` (stereo not drawn) [Example I-150, 6-(3-amino-6-(4-(4-cyclobutylpiperazin-1-yl)phenyl)-5-fluoropyrazin-2-yl)-4,4,8-trifluoro-3-methyl-3,4-dihydroisoquinolin-1(2H)-one], the half-maximal inhibitory concentration (IC50) is 11 to 100 nM.

Turning to `COc1ccc(-c2nc(-c3cc4c(cc3F)C(=O)NCC4)c(N)nc2F)cc1CN(C)C` [Example I-249, 6-(3-amino-6-(3-((dimethylamino)methyl)-4-methoxyphenyl)-5-fluoropyrazin-2-yl)-7-fluoro-3,4-dihydroisoquinolin-1(2H)-one], the IC50 is 0.1 to 10 nM.

For the compound `Nc1nc(F)c(-c2ccc(N3CCOCC3)c(CN3CCCC3)c2)nc1-c1ccc2c(=O)[nH]ccc2c1` [Example I-114, 6-(3-amino-5-fluoro-6-(4-morpholino-3-(pyrrolidin-1-ylmethyl)phenyl)pyrazin-2-yl)isoquinolin-1(2H)-one], the half-maximal inhibitory concentration (IC50) lay in the range of 0.1 to 10 nM.

As to `CN(C)Cc1cc(-c2nc(-c3cc(F)c4c(c3)CCNC4=O)c(N)nc2F)ccc1OCC1CCOCC1` [Example I-180, 6-(3-amino-6-(3-((dimethylamino)methyl)-4-((tetrahydro-2H-pyran-4-yl)methoxy)phenyl)-5-fluoropyrazin-2-yl)-8-fluoro-3,4-dihydroisoquinolin-1(2H)-one], the 50% inhibitory concentration (IC50) lay in the range of 0.1 to 10 nM.

With `Nc1nc(F)c(-c2ccc(C3CCOCC3)c(CN3CCCC3)c2)nc1-c1ccc2c(c1)CCNC2=O` [Example I-147, 6-(3-amino-5-fluoro-6-(3-(pyrrolidin-1-ylmethyl)-4-(tetrahydro-2H-pyran-4-yl)phenyl)pyrazin-2-yl)-3,4-dihydroisoquinolin-1(2H)-one], the IC50 was in the range of 0.1 to 10 nM.

Source of the values: US20240425479A1, “HALO-SUBSTITUTED AMINO AZA-HETEROARYL COMPOUNDS AS INHIBITORS OF THE HAEMATOPOIETIC PROGENITOR KINASE 1 (HPK1)” (priority 2021, published 2024).
